The subject of the test is Hedgehog pathway. Briefly: C3H10T1/2 osteoblast differentiation assay (alkaline phosphatase readout). The following applies: C3H10T1/2 cells, sonic Hedgehog 250 ng/ml, AP activity normalized to total protein, read-out: Differentiation Assay EC50 (approximate EC50 for inhibition). It is filed as cell-based, Mouse. From the text:
Hedgehog pathway specific cancer cell killing effects may be ascertained using the following assay. C3H10T1/2 cells differentiate into osteoblasts when contacted with the sonic hedgehog peptide (Shh-N). Upon differentiation; these osteoblasts produce high levels of alkaline phosphatase (AP) which can be measured in an enzymatic assay (Nakamura et al., X BBRC (1997) 237:465). Compounds that block the differentiation of C3H10T1/2 into osteoblasts (a Shh dependent event) can therefore be identified by a reduction in AP production (van der Horst et al., Bone (2003) 33:899). The assay details are described below. The results approximate (EC50 for inhibition) of the differentiation assay is shown below in Table 1.
Mouse embryonic mesoderm fibroblasts C3H10T1/2 cells (obtained from ATCC) were cultured in Basal MEM Media (Gibco/Invitrogen) supplemented with 10% heat inactivated FBS (Hyclone), 50 units/ml penicillin and 50 ug/ml streptomycin (Gibco/Invitrogen) at 37° C. With 5% CO2 in air atmosphere.
C3H10T1/2 cells were plated in 96 wells with a density of 8×10^3 cells/well. Cells were grown to confluence (72 hrs). After sonic Hedgehog (250 ng/ml), and/or compound treatment, the cells were lysed in 110 μL of lysis buffer (50 mm Tris ph 7.4, 0.1% tritonx100), plates were sonicated and lysates spun through 0.2 μm PVDF plates (Corning). 40 μL of lysates was assayed for AP activity in alkaline buffer solution (Sigma) containing 1 mg/ml p-Nitrophenyl Phosphate. After incubating for 30 min at 37° C., the plates were read on an Envision plate reader at 405 nm. Total protein was quantified with a BCA protein assay kit from Pierce according to manufacturer's instructions. AP activity was normalized against total protein.

Read-outs that look alike come from different tables or passages of the source.

Turning to `CC(=O)O[C@H]1CC[C@@]2(C)[C@H](CC[C@H]3[C@@H]4CC[C@@]5(CC(C)=C4C[C@@H]32)O[C@@H]2C[C@H](C)CN[C@H]2[C@H]5C)C1` [Compound 35], the EC50 (Mus musculus, C3H 10T1/2) was less than 20 nM.

Take `CC(=O)N(C)CCN1C[C@@H](C)C[C@H]2O[C@]3(CC[C@@H]4C(=C(C)C3)C[C@H]3[C@H]4CC[C@@H]4CC(=O)CC[C@@]43C)[C@H](C)[C@@H]21` [Compound 22]: the EC50 (Mus musculus, C3H 10T1/2) was less than 20 nM.

Consider `CC1=C2C[C@H]3[C@@H](CC[C@@H]4CCCC[C@@]43C)[C@@H]2CC[C@@]2(C1)O[C@@H]1C[C@H](C)CN[C@H]1[C@H]2C` [Compound 9], for which, under “Mus musculus, C3H 10T1/2”, the concentration for a half-maximal effect (EC50) was more than 100 nM.

`CC1=C2C[C@H]3[C@@H](CCC4=CC(=O)CC[C@@]43C)[C@@H]2CC[C@@]2(C1)O[C@@H]1C[C@H](C)CN(CCN(C)C)[C@H]1[C@H]2C` [Compound 20]: the concentration giving a half-maximal response (EC50) is less than 20 nM.

Consider `CC1=C2C[C@H]3[C@@H](CC[C@@H]4CC(=O)CC[C@@]43C)[C@@H]2CC[C@@]2(C1)O[C@@H]1C[C@H](C)CN(CCNC(=O)CCc3ccccc3)[C@H]1[C@H]2C` [Compound 23], for which the 50% effective concentration (EC50) (Mus musculus, C3H 10T1/2) is less than 20 nM.

For `CC1=C2C[C@H]3[C@@H](CC[C@@H]4C[C@H](NS(C)(=O)=O)CC[C@@]43C)[C@@H]2CC[C@]12O[C@@H]1C[C@H](C)CN[C@H]1[C@H]2C` [Compound 55], the EC50 (Mus musculus, C3H 10T1/2) was less than 20 nM.

As for `CC(=O)NCCN1C[C@@H](C)C[C@H]2O[C@]3(CC[C@@H]4C(=C(C)C3)C[C@H]3[C@H]4CC[C@@H]4CC(=O)CC[C@@]43C)[C@H](C)[C@@H]21` [Compound 21], the EC50 (Mus musculus, C3H 10T1/2) was 20 to 100 nM.

As for `CC1=C2C[C@H]3[C@@H](CC[C@@H]4CC(=O)CC[C@@]43C)[C@@H]2CC[C@@]2(C1)O[C@@H]1C[C@H](C)CN(C(C)C)[C@H]1[C@H]2C` [Compound 10], where the note is “Mus musculus, C3H 10T1/2”, the 50% effective concentration (EC50) is more than 100 nM.

As for `CC1=C2C[C@H]3[C@@H](CC[C@@H]4CC(=O)CC[C@@]43C)[C@@H]2CC[C@@]2(C1)O[C@@H]1C[C@H](C)CN(CCNCC(=O)c3ccccc3)[C@H]1[C@H]2C` [Compound 13], the EC50 is less than 20 nM.

For the compound `CC1=C2C[C@H]3[C@@H](CC[C@@H]4CC(=O)CC[C@@]43C)[C@@H]2CC[C@@]2(C1)O[C@@H]1C[C@H](C)CN(CCN(C)C(=O)CCc3ccccc3)[C@H]1[C@H]2C` [Compound 24], where the note is “Mus musculus, C3H 10T1/2”, the EC50 is less than 20 nM.

With `CC1=C2C[C@H]3[C@@H](CC[C@@H]4CC(=O)CC[C@@]43C)[C@@H]2CC[C@@]2(C1)O[C@@H]1C[C@H](C)CN[C@H]1[C@H]2C` [Compound 1], for the setting “Mus musculus, C3H 10T1/2”, the EC50 is less than 20 nM.

Consider `CC1=C2C[C@H]3[C@@H](CC=C4C[C@@H](OCc5ccccc5)CC[C@@]43C)[C@@H]2CC[C@@]2(C1)O[C@@H]1C[C@H](C)CN(C(=O)OCc3ccccc3)[C@H]1[C@H]2C` [Compound 7], for which the EC50 is more than 100 nM.

The values are drawn from patent US10314827B2, “Methods of use of cyclopamine analogs” (Infinity Pharmaceuticals, Inc., priority 2006, dated 2019).
